Reference: article PMC4992173, “Divergent synthesis and identification of the cellular targets of deoxyelephantopins” (Nature Communications, 2016)

System: Caco-2 cells
Assay: In situ global proteomics profiling of Caco-2 cells (LC-MS/MS, LFQ)
Assay type: cell-based, human
Conditions: LFQ
Protocol: Figure 7 Identification of PPARγ as target of deoxyelephantopin and screening of DEP derivatives as PPARγ antagonists. (a) Quantification of endogenous PPARγ enriched from Caco-2 cells using 10 μM 24c following in situ treatment with DEP (20 μM) or DMSO (normalized LFQ values±s.d. are shown; n=6). (b) Changes in expression levels of five PPARγ-dependent proteins following 24 h treatment of Caco-2 cells with DMSO, rosiglitazone (10 μM), T0070907 (50 μM) or DEP (20 μM; LFQ ratios±s.d. are shown; n=3). **P<0.005 and ***P<0.0005 by two-sided Student's t-test. (c) Gel-based competitive screening of DEP and analogues as PPARγ antagonists against recombinant human enzyme (top). hPPARγ was treated with each compound (20 μM) for 1 h followed by treatment with 24c-Cy3 (10 μM) as probe. Quantification of fluorescence intensity in the competitive screening for PPARγ antagonists (bottom; values±s.d. are shown; n=3).
Caco-2 cells were treated with DMSO, PPARγ agonist rosiglitazone, antagonist T0070907 or DEP for 24 h, the cells were collected and the proteomes were comparatively analysed by LC–MS/MS. […] Furthermore, the list of 43 dysregulated proteins was analysed and classified using the GOrilla pathway analysis tool (Supplementary Fig. 15). […]
In situ global proteomics profiling using LC-MS/MS. Caco- ’ cells/mL) in a 6-well plate, allowed to grow to confluence and to differentiate for 28 days. The wells were washed one time with PBS and treated with either DMSO, 10 µM rosiglitazone, 50 µM T0070907 or 20 µM DEP for 24 hours. Cells were washed two times with PBS and lysates were prepared. Samples (30 µg) were denatured with 6 M urea in 50 mM NH4HCO3, reduced […]
dark. Samples were diluted to 2 M urea with 50 mM NH4HCO3, and digested with trypsin ([…] for 12 hours at 37 °C. Samples were acidified to a final concentration of 5% acetic acid, desalted over a self-packed C18 spin column and […]
dried. […]
LC-MS/MS analysis. Peptides were resuspended in water with 0.1% formic acid (FA) and analyzed using Proxeon EASY-nLC 1000 nano-UHPLC coupled to QExactive Plus Quadrupole-Orbitrap mass spectrometer (Thermo Scientific). The chromatography column […]
H2O (Buffer A) and 0.1% FA in MeCN (Buffer B). Peptides were eluted into the mass spectrometer at a flow rate of 300 nL/min. over a 240 min. linear gradient (3-35% Buffer B) at 50 °C. Data was acquired in data-dependent mode (top- N = ’ […]
and isotope exclusion was enabled.
MaxQuant analysis. The MS data was analyzed with MaxQuant (V1.5.2.8) and searched against the human proteome (Uniprot, 89,649 entries) and a common list of contaminants (included in MaxQuant). The first peptide search tolerance was set to 20 ppm, 10 ppm was used for the main peptide search and fragment mass tolerance was set to 0.02 Da. The false discovery rate for peptides, proteins and sites identification was set to 1%. The minimum peptide length was set to 6 amino acids and peptide re-quantification, label-free quantification (MaxLFQ) and “ ” were enabled. The minimal number of peptides per protein was set to two. Oxidized methionines and N-terminal acetylation were searched as variable modifications and carbamidomethylation of cysteines was searched as a fixed modification. For SILAC experiments 13C6 L-lysine and 13C6 15N4 L-arginine were set as heavy isotope labels and 12C6 L-lysine and 12C6 14N4 L-arginine as light isotope labels.
19 d k g h ARγ. 19a was covalently docked to the crystal structure of human γ ZU 190 using the GOLD suite (V5.3, CCDC). The default GOLD fitness function was used to determine the best binding configuration. The distance for hydrogen bonding was set to 3 Å.
IAA competition of 23c, 24c and DEP h ARγ. γ
(500 ng in 9 µL PBS) was treated with either 100 µM DEP, 23c, 24c or DMSO (1 µL of 10x stock in DMSO) for one hour. Samples were denatured with 6 M urea in 50 mM NH4HCO3, […]
in the dark. Samples were diluted to 2 M urea with 50 mM NH4HCO3, and digested with trypsin […]

SMILES: CN(CCOc1ccc(CC2SC(=O)NC2=O)cc1)c1ccccn1 (centres unmarked) [Rosiglitazone, rosiglitazone]
- Log2 10 µM Rosiglitazone/DMSO (protein ALDH3B1, 24 h): -0.32
- Log2 10 µM Rosiglitazone/DMSO (protein ARHGAP17, 24 h): 0.39
- Log2 10 µM Rosiglitazone/DMSO (protein ARMCX3, 24 h): -0.36
- Log2 10 µM Rosiglitazone/DMSO (protein COL4A3BP, 24 h): -0.06
- Log2 10 µM Rosiglitazone/DMSO (protein CROT, 24 h): 0.034
- Log2 10 µM Rosiglitazone/DMSO (protein CTBP2, 24 h): 0.36
- Log2 10 µM Rosiglitazone/DMSO (protein DDX21, 24 h): 0.15
- Log2 10 µM Rosiglitazone/DMSO (protein FNTA, 24 h): -0.12
- Log2 10 µM Rosiglitazone/DMSO (protein GID8, 24 h): 0.46
- Log2 10 µM Rosiglitazone/DMSO (protein GIPC2, 24 h): 0.0144
- Log2 10 µM Rosiglitazone/DMSO (protein GIT2, 24 h): -0.38
- Log2 10 µM Rosiglitazone/DMSO (protein GSTA1, 24 h): 0.21
- Log2 10 µM Rosiglitazone/DMSO (protein GSTA2, 24 h): 0.20
- Log2 10 µM Rosiglitazone/DMSO (protein GSTM3, 24 h): 0.30
- Log2 10 µM Rosiglitazone/DMSO (protein HIGD1A, 24 h): 0.43
- Log2 10 µM Rosiglitazone/DMSO (protein IREB2, 24 h): 0.26
- Log2 10 µM Rosiglitazone/DMSO (protein ITGB4, 24 h): 0.08
- Log2 10 µM Rosiglitazone/DMSO (protein LDHD, 24 h): -0.20
- Log2 10 µM Rosiglitazone/DMSO (protein LDLR, 24 h): 0.49
- Log2 10 µM Rosiglitazone/DMSO (protein LIPA, 24 h): 0.034
- Log2 10 µM Rosiglitazone/DMSO (protein MARCH5, 24 h): 0.40
- Log2 10 µM Rosiglitazone/DMSO (protein MGMT, 24 h): -0.17
- Log2 10 µM Rosiglitazone/DMSO (protein MYO15B, 24 h): 0.08
- Log2 10 µM Rosiglitazone/DMSO (protein NOP9, 24 h): 0.07
- Log2 10 µM Rosiglitazone/DMSO (protein OAS1, 24 h): 0.0144
- Log2 10 µM Rosiglitazone/DMSO (protein OGDHL, 24 h): 0.10
- Log2 10 µM Rosiglitazone/DMSO (protein PANK4, 24 h): -0.34
- Log2 10 µM Rosiglitazone/DMSO (protein PHPT1, 24 h): -0.36
- Log2 10 µM Rosiglitazone/DMSO (protein PSIP1, 24 h): 0.49
- Log2 10 µM Rosiglitazone/DMSO (protein RAB5B, 24 h): 0.49
- Log2 10 µM Rosiglitazone/DMSO (protein RBP4, 24 h): 0.20
- Log2 10 µM Rosiglitazone/DMSO (protein RRS1, 24 h): 0.50
- Log2 10 µM Rosiglitazone/DMSO (protein SAMHD1, 24 h): -0.43
- Log2 10 µM Rosiglitazone/DMSO (protein SCAMP3, 24 h): 0.45
- Log2 10 µM Rosiglitazone/DMSO (protein SETDB1, 24 h): 0.08
- Log2 10 µM Rosiglitazone/DMSO (protein SLC26A3, 24 h): 0.10
- Log2 10 µM Rosiglitazone/DMSO (protein SLC39A14, 24 h): -0.49
- Log2 10 µM Rosiglitazone/DMSO (protein STK4, 24 h): 0.36
- Log2 10 µM Rosiglitazone/DMSO (protein SURF6, 24 h): 0.26
- Log2 10 µM Rosiglitazone/DMSO (protein TGOLN2, 24 h): 0.28
- Log2 10 µM Rosiglitazone/DMSO (protein TPD52L1, 24 h): -0.45
- Log2 10 µM Rosiglitazone/DMSO (protein TTR, 24 h): 0.46
- Log2 10 µM Rosiglitazone/DMSO (protein VPS52, 24 h): 0.42

SMILES: O=C(Nc1ccncc1)c1cc([N+](=O)[O-])ccc1Cl [T0070907]
- Log2 50 µM T0070907/DMSO (protein ALDH3B1, 24 h): -0.79
- Log2 50 µM T0070907/DMSO (protein ARHGAP17, 24 h): -0.81
- Log2 50 µM T0070907/DMSO (protein ARMCX3, 24 h): -0.71
- Log2 50 µM T0070907/DMSO (protein COL4A3BP, 24 h): -0.76
- Log2 50 µM T0070907/DMSO (protein CROT, 24 h): -0.85
- Log2 50 µM T0070907/DMSO (protein CTBP2, 24 h): 0.83
- Log2 50 µM T0070907/DMSO (protein DDX21, 24 h): 0.92
- Log2 50 µM T0070907/DMSO (protein FNTA, 24 h): -0.97
- Log2 50 µM T0070907/DMSO (protein GID8, 24 h): 0.60
- Log2 50 µM T0070907/DMSO (protein GIPC2, 24 h): -0.69
- Log2 50 µM T0070907/DMSO (protein GIT2, 24 h): -0.89
- Log2 50 µM T0070907/DMSO (protein GSTA1, 24 h): -0.76
- Log2 50 µM T0070907/DMSO (protein GSTA2, 24 h): -0.80
- Log2 50 µM T0070907/DMSO (protein GSTM3, 24 h): -0.71
- Log2 50 µM T0070907/DMSO (protein HIGD1A, 24 h): 0.70
- Log2 50 µM T0070907/DMSO (protein IREB2, 24 h): 0.96
- Log2 50 µM T0070907/DMSO (protein ITGB4, 24 h): 1.36
- Log2 50 µM T0070907/DMSO (protein LDHD, 24 h): -0.67
- Log2 50 µM T0070907/DMSO (protein LDLR, 24 h): 1.99
- Log2 50 µM T0070907/DMSO (protein LIPA, 24 h): -0.85
- Log2 50 µM T0070907/DMSO (protein MARCH5, 24 h): 1.21
- Log2 50 µM T0070907/DMSO (protein MGMT, 24 h): -0.69
- Log2 50 µM T0070907/DMSO (protein MYO15B, 24 h): -0.74
- Log2 50 µM T0070907/DMSO (protein NOP9, 24 h): 1.10
- Log2 50 µM T0070907/DMSO (protein OAS1, 24 h): 0.92
- Log2 50 µM T0070907/DMSO (protein OGDHL, 24 h): -1.02
- Log2 50 µM T0070907/DMSO (protein PANK4, 24 h): -0.81
- Log2 50 µM T0070907/DMSO (protein PHPT1, 24 h): -1.25
- Log2 50 µM T0070907/DMSO (protein PSIP1, 24 h): 0.60
- Log2 50 µM T0070907/DMSO (protein RAB5B, 24 h): 0.62
- Log2 50 µM T0070907/DMSO (protein RBP4, 24 h): -0.37
- Log2 50 µM T0070907/DMSO (protein RRS1, 24 h): 0.77
- Log2 50 µM T0070907/DMSO (protein SAMHD1, 24 h): -0.81
- Log2 50 µM T0070907/DMSO (protein SCAMP3, 24 h): 0.64
- Log2 50 µM T0070907/DMSO (protein SETDB1, 24 h): 0.63
- Log2 50 µM T0070907/DMSO (protein SLC26A3, 24 h): -1.02
- Log2 50 µM T0070907/DMSO (protein SLC39A14, 24 h): -0.69
- Log2 50 µM T0070907/DMSO (protein STK4, 24 h): -0.81
- Log2 50 µM T0070907/DMSO (protein SURF6, 24 h): 0.78
- Log2 50 µM T0070907/DMSO (protein TGOLN2, 24 h): 0.93
- Log2 50 µM T0070907/DMSO (protein TPD52L1, 24 h): -1.09
- Log2 50 µM T0070907/DMSO (protein TTR, 24 h): -1.25
- Log2 50 µM T0070907/DMSO (protein VPS52, 24 h): 0.77
